Experimental data as given in patent publication US5206428A, “Tetrahydronaphthalene derivatives and preparation thereof” (Tanabe Seiyaku Co., Ltd., priority 1989, dated 1993).
In brackets after ≈: the same amount, converted by molar mass.

Tested on: U-46619-induced platelet aggregation
Test: U-46619-induced platelet aggregation-inhibiting activity (in vitro)
Assay type: cell-based
Conditions: human platelet-rich plasma, 4×10^5 cells/mm^3, U-46619 solution (0.2 μg/ml), 37° C., Born's method
Procedure: The bottom layer was further centrifuged to give platelet-poor plasma ("PPP") as the supernatant. PRP was diluted with PPP so that the platelet count was 4×10^5 cells/mm^3. 25 μl of a test compound solution was added to 200 μl of said diluted PRP.

IC50	SMILES
0.2 µg/mL (≈ 0.465 µM)	Cc1ccc(S(=O)(=O)NC2CCc3cc(CC(=O)NCCC(=O)O)ccc3C2)cc1 (stereo not drawn) [Compound No. 1]
0.7 µg/mL (≈ 1.51 µM)	O=C(O)CCCNC(=O)Cc1ccc2c(c1)CCC(NS(=O)(=O)c1ccc(Cl)cc1)C2 (stereo not drawn) [Compound No. 3]

SMILES	IC50
O=C([O-])Cc1ccc2c(c1)CCC(NS(=O)(=O)c1ccc(Cl)cc1)C2.[Na+] (stereo not drawn) [Compound No. 2, Sodium 6(4-chlorophenyl)sulfonylamino-5,6,7,8-tetrahydronaphthalene-2-acetate]	0.06 µg/mL
